Patent EP1233748B1, “RETINALDEHYDE COMBINATION WITH ANTIFUNGAL ACTIVITY” (Pierre Fabre Dermo-Cosmetique, priority 1999, dated 2001)

Experiments:
Assay type in all cases: cell-based
[1] = test system: Malassézia furfur IP 1363-82; Malassezia furfur sauvage; assay: Combination study, checkerboard method on microplate, CMF in association and FIC Index; conditions: for CMF % Associés: product in association (Rétinal + Ald. C11), checkerboard, 32°C
Protocol: (§1) *souche : Malassézia furfur IP 1363-82 Malassezia furfur sauvage collecté auprès d'un pityriasis versicolor chez un patient hospitalisé au Centre Hospitalier Régional de Toulouse Rangueil (France). *milieu de culture : Dixon modifié (sous forme de bouillon et sous forme gélosée par ajout d'agar) *appareillage : microplaques stériles Nunc ® Nunclon à 96 puits eau distillée stérile tubes à essais stériles étuve à 32°C spectrophotomètre et cuves adaptées billes de verre stériles *produits : les solutions-mères des produits cités ci-dessous ont été préparés comme suit : • Trans rétinal :solution à 1% dans 20% d'éthanol 95 complétée avec de l'eau distillée stérile. • undécanal :solution à 1% dans 10% de Tween 80 complétée par de l'eau distillée stérile.
Des solutions-mères comme décrites précédemment égales à deux fois la CMF sont réalisées. La méthode de l'échiquier rapportée sur microplaque est utilisée pour croiser les séries de dilution au demi de chaque actif. Après ensemencement et incubation à 32°C, on procède à la lecture des CMF. Un repérage des CMF donnant lieu à des synergies peut alors se faire. Nous obtenons après calcul des FIC Index le tableau suivant :
La synergie peut être mise en évidence par le calcul des Index FIC (Fractional Inhibitory Concentration) des produits. Pour cela, on mesure la valeur de la CMF (ou Concentration Minimale Fongistatique) des principes actifs à tester vis-à-vis d'un type de germe.
Le FIC d'un produit A est défini comme : FICA =(CMF du produit A en association)/(CMF du produit A seul) [formula]
L'association de deux antifongiques A et B est synergique si la somme FIC des rapports (FICA et FICB) est inférieure ou égale à 0,75.
Plus la valeur FIC est faible, plus la synergie est importante.
On considère qu'il y a simple additivité pour des valeurs de FIC comprises entre 0,75 et 1,1 et indifférente dans l'intervalle compris entre 1,1 et 2; au-delà, l'association est notée antagoniste.

[2] = test system: Malassézia furfur IP 1363-82; Malassezia furfur sauvage; assay: Determination of the minimal fungistatic concentration (CMF), serial two-fold dilution in Dixon broth in microplates; conditions: product alone, 32°C, 48 to 72 h
Protocol: as §1
• une distribution de 100µl de bouillon Dixon est réalisée dans chaque cupule de la microplaque stérile. • une distribution de 100µl des différents produits a lieu dans une cupule, une cupule par produit (on est alors à 50% d'actif). • une série de dilutions sériées au demi est ensuite réalisée contre un témoin stérilité du milieu de culture et un autre témoin de la vigueur de la souche.
L'ensemencement de la microplaque a lieu sous atmosphère stérile après préparation de l'inoculum fongique comme suit : […]

Malassezia = assay: Antifungal activity on Malassezia, general statements in the description; conditions: alone

Row | Structure (SMILES) | CMF % Associés [1] | CMF % Seuls [2] | action sur les levures telles Malassezia (Malassezia) | FIC Index ([1]; sum of FIC for the association Rétinal + Ald. C11, synergy if <= 0,75)
1 | CCCCCCCCCCC=O [Ald. C11, undécanal] | 0,0001 – 0,03% | – | – | –
2 | CC1=C(/C=C/C(C)=C/C=C/C(C)=C/C=O)C(C)(C)CCC1 [Rétinal, Trans rétinal] | 0,06 – 0,25% | 0,25 – 0,5% | ne possède pas d'action notoire | 0,51 à 0,75
